One test deals with PKR R510Q (Homo sapiens, UniProt P30613, R510Q). The test can be described thus: PKR Mutant Assay, AC50 against PKR R510Q. In kind it is biochemical. The note with it: mutant PKR R510Q enzyme. In outline: (§1)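 LDH-coupled read-out: NADH (180 uM) consumption followed as absorbance change at 340 nm, room temperature, after ADP addition. Mutant PKR enzyme 80-400 ng/well, PEP 0.1-0.5 mM, ADP 0.22-1.65 mM; compound preincubated 60 min with all components except ADP.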

Another test addresses PKR R532W (Homo sapiens, UniProt P30613, R532W). The test can be described thus: PKR Mutant Assay, AC50 against PKR R532W. It is filed as biochemical. The note with it: mutant PKR R532W enzyme. A digest of the protocol:
as §1

Test [1] has as its target T1, PKR WT (Homo sapiens, UniProt P30613). The test can be described thus: PKR WT enzymatic AC50 assay. The note with it: wild type PKR. It is filed as biochemical. In outline: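 LDH-coupled NADH depletion read as A340 change at room temperature after ADP (0.22-1.65 mM) start. Compounds, tested from 100 μM final in 3-fold steps over 11 points with 1% DMSO, sat 60 min with enzyme (80-400 ng/well), PEP 0.1-0.5 mM and NADH 180 uM in Tris pH 7.5/KCl/MgCl2/DTT/BSA buffer.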

Test [2] addresses T1, PKR WT. Description: PKR WT cell based AC50 assay. The note with it: wild type PKR.

The structures appear in SMILES notation.

Chain of PKR R532W (P30613 whole entry R532W): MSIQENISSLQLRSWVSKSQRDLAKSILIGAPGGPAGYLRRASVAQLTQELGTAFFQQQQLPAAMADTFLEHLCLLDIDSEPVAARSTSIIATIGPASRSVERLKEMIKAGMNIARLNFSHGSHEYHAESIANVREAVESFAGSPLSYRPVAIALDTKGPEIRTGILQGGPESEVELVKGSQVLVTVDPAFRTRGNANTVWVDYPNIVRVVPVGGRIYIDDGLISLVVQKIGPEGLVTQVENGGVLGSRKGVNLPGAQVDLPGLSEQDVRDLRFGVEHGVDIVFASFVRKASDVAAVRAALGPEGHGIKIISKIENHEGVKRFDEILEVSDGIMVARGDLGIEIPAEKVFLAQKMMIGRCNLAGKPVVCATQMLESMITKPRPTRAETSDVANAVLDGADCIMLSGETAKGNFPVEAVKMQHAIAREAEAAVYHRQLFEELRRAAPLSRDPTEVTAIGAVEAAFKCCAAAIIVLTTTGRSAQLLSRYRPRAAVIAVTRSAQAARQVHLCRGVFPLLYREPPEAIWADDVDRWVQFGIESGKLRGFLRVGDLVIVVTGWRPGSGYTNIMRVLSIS
Chain of PKR R510Q (P30613 whole entry R510Q): as the sequence (P30613 whole entry R532W) above, with R510Q, W532R counted along it
T1 sequence (P30613 whole entry): as the sequence (P30613 whole entry R532W) above, with W532R counted along it

What is called AC50 is the midpoint of the concentration-response curve, whichever way the signal moves. Take `Cc1cccc(CC2(O)CCN(C(=O)c3ccc(NS(=O)(=O)c4cccc5cccnc45)cc3)CC2)c1` [Compound 118, N-(4-(4-hydroxy-4-(3-methylbenzyl)piperidine-1-carbonyl)phenyl)quinoline-8-sulfonamide]: the AC50 on PKR R510Q is 101 to 1000 nM; on PKR R532W, less than 100 nM; at PKR WT [1], less than 100 nM; at PKR WT [2], less than 100 nM.

Regarding `O=C(c1ccc(NS(=O)(=O)c2cccc3cccnc23)cc1)N1CCC(O)(Cc2cccc(F)c2F)CC1` [Compound 169, N-(4-(4-(2,3-difluorobenzyl)-4-hydroxypiperidine-1-carbonyl)phenyl)quinoline-8-sulfonamide], the AC50 on PKR R510Q was 101 to 1000 nM; at PKR R532W, less than 100 nM; at PKR WT [1], less than 100 nM; at PKR WT [2], less than 100 nM.

Turning to `CC(F)(F)CCC1(O)CCN(C(=O)c2ccc(NS(=O)(=O)c3cccc4nccnc34)cc2)CC1` [Compound 396, N-(4-(4-(3,3-difluorobutyl)-4-hydroxypiperidine-1-carbonyl)phenyl)quinoxaline-5-sulfonamide], the AC50 is 101 to 1000 nM on PKR R510Q, 101 to 1000 nM on PKR R532W, less than 100 nM on PKR WT [1] and less than 100 nM at PKR WT [2].

As to `CC(C)CC1(O)CCN(C(=O)c2ccc(NS(=O)(=O)c3cccc4ncc(N)nc34)cc2)CC1` [Compound 437], the AC50 on PKR R510Q, at PKR R532W, at PKR WT [1] and on PKR WT [2] was less than 100 nM each time.

Regarding `Cc1nc(F)ccc1C1(O)CCN(C(=O)c2ccc(NS(=O)(=O)c3cccc4cccnc34)cc2)CC1` [Compound 129, N-(4-(4-(6-fluoro-2-methylpyridin-3-yl)-4-hydroxypiperidine-1-carbonyl)phenyl)quinoline-8-sulfonamide], the AC50 on PKR R510Q, on PKR R532W, on PKR WT [1] and on PKR WT [2] was less than 100 nM each time.

In the case of `COc1cc(NS(=O)(=O)c2cccc3cccnc23)ccc1C(=O)N1CCC(O)(Cc2ccccc2)CC1` [Compound 112, N-(4-(4-benzyl-4-hydroxypiperidine-1-carbonyl)-3-methoxyphenyl)quinoline-8-sulfonamide], the AC50 at PKR R510Q was less than 100 nM; at PKR R532W, less than 100 nM; at PKR WT [1], less than 100 nM; on PKR WT [2], 101 to 1000 nM.

For the compound `O=C(c1ccc(NS(=O)(=O)c2cccc3cccnc23)cc1)N1CCC(O)(c2cnsc2)CC1` [Compound 377], the AC50 was 101 to 1000 nM on PKR R510Q, less than 100 nM at PKR R532W, less than 100 nM at PKR WT [1] and less than 100 nM on PKR WT [2].

In the case of `O=C(c1ccc(NS(=O)(=O)c2cccc3cccnc23)cc1Cl)N1CCC(O)(c2ccccc2Cl)CC1` [Compound 157, N-(3-chloro-4-(4-(2-chlorophenyl)-4-hydroxypiperidine-1-carbonyl)phenyl)quinoline-8-sulfonamide], the AC50 on PKR R510Q was 101 to 1000 nM; at PKR R532W, less than 100 nM; at PKR WT [1], less than 100 nM; on PKR WT [2], less than 100 nM.

On to `CC(C)CC1(O)CCN(C(=O)c2ccc(NS(=O)(=O)c3cccc4c(O)ncnc34)cc2)CC1` [Compound 388, 4-hydroxy-N-(4-(4-hydroxy-4-isobutylpiperidine-1-carbonyl)phenyl)quinazoline-8-sulfonamide], for which the AC50 at PKR R510Q, at PKR R532W, at PKR WT [1] and at PKR WT [2] was less than 100 nM throughout.

Take `CC(C)CC1(O)CCN(C(=O)c2ccc(NS(=O)(=O)c3cccc4c3OCO4)cc2)CC1` [Compound 423]: the AC50 on PKR R510Q is 101 to 1000 nM; on PKR R532W, less than 100 nM; on PKR WT [1] it was less than 100 nM; at PKR WT [2], less than 100 nM.

Consider `O=C(c1ccc(NS(=O)(=O)c2cccc3cccnc23)c(F)c1)N1CCC(O)(c2ccccc2Cl)CC1` [Compound 143, N-(4-(4-(2-chlorophenyl)-4-hydroxypiperidine-1-carbonyl)-2-fluorophenyl)quinoline-8-sulfonamide], for which the AC50 on PKR R510Q, at PKR R532W, at PKR WT [1] and on PKR WT [2] was less than 100 nM throughout.

Regarding `O=C(c1ccc(NS(=O)(=O)c2cccc3nccnc23)cc1)N1CCC(O)(c2ccccc2Cl)CC1` [Compound 162, N-(4-(4-(2-chlorophenyl)-4-hydroxypiperidine-1-carbonyl)phenyl)quinoxaline-5-sulfonamide], the AC50 on PKR R510Q is 101 to 1000 nM; at PKR R532W, less than 100 nM; on PKR WT [1], less than 100 nM; on PKR WT [2], less than 100 nM.

Turning to `O=C(c1ccc(NS(=O)(=O)c2cccc3cc(F)cnc23)cc1)N1CCC(O)(c2ccccc2)CC1` [Compound 218, 3-fluoro-N-(4-(4-hydroxy-4-phenylpiperidine-1-carbonyl)phenyl)quinoline-8-sulfonamide], the AC50 at PKR R510Q was 101 to 1000 nM; at PKR R532W it was less than 100 nM; at PKR WT [1], less than 100 nM; at PKR WT [2], less than 100 nM.

In the case of `CC(C)(F)CC1(O)CCN(C(=O)c2ccc(NS(=O)(=O)c3cccc4scnc34)cc2)CC1` [Compound 403, N-(4-(4-(2-fluoro-2-methylpropyl)-4-hydroxypiperidine-1-carbonyl)phenyl)benzo[d]thiazole-4-sulfonamide], the AC50 was 101 to 1000 nM at PKR R510Q, less than 100 nM on PKR R532W, 101 to 1000 nM on PKR WT [1] and less than 100 nM at PKR WT [2].

`O=C(c1ccc(NS(=O)(=O)c2cccc3cccnc23)cc1OC(F)F)N1CCC(O)(c2ccccc2Cl)CC1` [Compound 151, N-(4-(4-(2-chlorophenyl)-4-hydroxypiperidine-1-carbonyl)-3-(difluoromethoxy)phenyl)quinoline-8-sulfonamide]: the AC50 at PKR R510Q, at PKR R532W, on PKR WT [1] and on PKR WT [2] was less than 100 nM each time.

As for `O=C(c1ccc(NS(=O)(=O)c2cccc3c(O)ncnc23)cc1)N1CCC(O)(/C=C/CC(F)(F)F)CC1` [Compound 424], the AC50 at PKR R510Q is less than 100 nM; on PKR R532W, 101 to 1000 nM; at PKR WT [1], less than 100 nM; at PKR WT [2], 101 to 1000 nM.

Regarding `CC(C)C1(O)CCN(C(=O)c2ccc(NS(=O)(=O)c3cccc4cccnc34)cc2)CC1` [Compound 214, N-(4-(4-hydroxy-4-isopropylpiperidine-1-carbonyl)phenyl)quinoline-8-sulfonamide], the AC50 on PKR R510Q is 101 to 1000 nM; on PKR R532W, less than 100 nM; on PKR WT [1] it was less than 100 nM; on PKR WT [2] it was less than 100 nM.

As for `O=C(c1ccc(NS(=O)(=O)c2cccc3cccnc23)cc1)N1CCC(O)(CCC(F)F)CC1` [Compound 204, N-(4-(4-(3,3-difluoropropyl)-4-hydroxypiperidine-1-carbonyl)phenyl)quinoline-8-sulfonamide], the AC50 at PKR R510Q is 101 to 1000 nM; at PKR R532W, less than 100 nM; on PKR WT [1], less than 100 nM; on PKR WT [2] it was less than 100 nM.

As to `Cc1cc(C(=O)N2CCC(O)(c3cccc(F)c3F)CC2)ccc1NS(=O)(=O)c1ccc(F)c2cccnc12` [Compound 220, N-(4-(4-(2,3-difluorophenyl)-4-hydroxypiperidine-1-carbonyl)-2-methylphenyl)-5-fluoroquinoline-8-sulfonamide], the AC50 was 101 to 1000 nM at PKR R510Q, less than 100 nM at PKR R532W, less than 100 nM on PKR WT [1] and 1010 to 10000 nM at PKR WT [2].

Turning to `C=C(CC1(O)CCN(C(=O)c2ccc(NS(=O)(=O)c3cccc4scnc34)cc2)CC1)C(F)(F)F` [Compound 390, N-(4-(4-hydroxy-4-(2-(trifluoromethyl)allyl)piperidine-1-carbonyl)phenyl)benzo[d]thiazole-4-sulfonamide], the AC50 on PKR R510Q, on PKR R532W, on PKR WT [1] and at PKR WT [2] was less than 100 nM each time.

`O=C(c1ccc(NS(=O)(=O)c2cccc3cccnc23)cc1)N1CCC(O)(CC2CC2(F)F)CC1` (stereo not drawn) [Compound 176, N-(4-(4-((2,2-difluorocyclopropyl)methyl)-4-hydroxypiperidine-1-carbonyl)phenyl)quinoline-8-sulfonamide]: the AC50 at PKR R510Q is 101 to 1000 nM; at PKR R532W it was less than 100 nM; on PKR WT [1] it was less than 100 nM; on PKR WT [2], less than 100 nM.

With `O=C(c1ccc(NS(=O)(=O)c2cccc3scnc23)cc1)N1CCC(O)(CCC=C(F)F)CC1` [Compound 393, N-(4-(4-(4,4-difluorobut-3-en-1-yl)-4-hydroxypiperidine-1-carbonyl)phenyl)benzo[d]thiazole-4-sulfonamide], the AC50 on PKR R510Q is 101 to 1000 nM; at PKR R532W, less than 100 nM; on PKR WT [1], less than 100 nM; on PKR WT [2], less than 100 nM.

In the case of `COc1ccccc1CC1(O)CCN(C(=O)c2ccc(NS(=O)(=O)c3cccc4cccnc34)cc2)CC1` [Compound 116, N-(4-(4-hydroxy-4-(2-methoxybenzyl)piperidine-1-carbonyl)phenyl)quinoline-8-sulfonamide], the AC50 at PKR R510Q, at PKR R532W, at PKR WT [1] and at PKR WT [2] was less than 100 nM throughout.

In the case of `O=C(c1ccc(NS(=O)(=O)c2cccc3cccnc23)cc1)N1CCC(O)(c2cccc(F)c2)CC1` [Compound 142, N-(4-(4-(3-fluorophenyl)-4-hydroxypiperidine-1-carbonyl)phenyl)quinoline-8-sulfonamide], the AC50 at PKR R510Q was 101 to 1000 nM; on PKR R532W, less than 100 nM; on PKR WT [1], less than 100 nM; at PKR WT [2], less than 100 nM.

For the origin of these results see patent US9108921B2, “Therapeutic compounds and compositions” (AGIOS PHARMACEUTICALS, INC, priority 2014, dated 2015).
